Measured values: patent publication US7928098B2, “Therapeutic and/or preventive agents for a sleep disorder” (Kyowa Hakko Kirin Co., Ltd., priority 2005, dated 2011)

melting point	SMILES
246 to 249 °C	CC(O)c1cc2cc(C(=O)Nc3nc(-c4ccco4)c(C(=O)c4ccccn4)s3)ccc2o1 (stereo not shown) [Compound 154, N-[4-(2-Furyl)-5-(pyridin-2-ylcarbonyl)thiazol-2-yl]-2-(1-hydroxyethyl)-1-benzofuran-5-carboxamide]
170 to 171 °C	O=C(CN1CCOCC1)Nc1nc(-c2ccco2)c(C(=O)c2ccccn2)s1 [Compound 172, N-[4-(2-Furyl)-5-(pyridin-2-ylcarbonyl)thiazol-2-yl]morpholinoacetamide]
246 to 257 °C (dec.)	COc1ccc(C(=O)c2sc(NC(=O)c3ccncc3)nc2-c2ccco2)cn1 [Compound 226, N-[4-(2-Furyl)-5-(2-methoxypyridin-5-ylcarbonyl)thiazol-2-yl]pyridine-4-carboxamide]
201 to 202 °C	COc1ccc(C(=O)Nc2nc(-c3ccco3)c(C(=O)c3ccccn3)s2)c(OC)n1 [Compound 132, N-[4-(2-Furyl)-5-(pyridin-2-ylcarbonyl)thiazol-2-yl]-2,6-dimethoxypyridine-3-carboxamide]
197 to 209 °C	Cc1ccc(C(=O)c2sc(NC(=O)c3ccco3)nc2-c2ccco2)cn1 [Compound 222, N-[4-(2-Furyl)-5-(2-methylpyridin-5-ylcarbonyl)thiazol-2-yl]furan-2-carboxamide]
152 to 156 °C	COc1cccc(OC)c1C(=O)Nc1nc(-c2ccco2)c(C(=O)C2CCOCC2)s1 [Compound 391, N-[4-(2-Furyl)-5-(tetrahydropyran-4-ylcarbonyl)thiazol-2-yl]-2,6-dimethoxybenzamide]
169 to 170 °C	COc1ccc(C(=O)Nc2nc(-c3ccco3)c(C(=O)c3ccccn3)s2)cc1OC [Compound 111, N-[4-(2-Furyl)-5-(pyridin-2-ylcarbonyl)thiazol-2-yl]-3,4-dimethoxybenzamide]
264 to 268 °C	O=C(Nc1nc(-c2ccco2)c(C(=O)c2ccc(N3CCC(O)CC3)nc2)s1)c1ccncc1 [Compound 233, N-{4-(2-Furyl)-5-[2-(4-hydroxypiperidino)pyridin-5-ylcarbonyl]thiazol-2-yl}pyridine-4-carboxamide]
231 to 233 °C	O=C(c1cccnc1)c1sc(NC(=O)C2CC2)nc1-c1ccco1 [Compound 212, N-[4-(2-Furyl)-5-(pyridin-3-ylcarbonyl)thiazol-2-yl]cyclopropanecarboxamide]
257 to 260 °C	N#Cc1cccc(C(=O)Nc2nc(-c3ccco3)c(C(=O)C3CCOCC3)s2)c1 [Compound 378, 3-Cyano-N-[4-(2-furyl)-5-(tetrahydropyran-4-ylcarbonyl)-thiazol-2-yl]benzamide]
169 to 170 °C	COCCCNC(=O)Nc1nc(-c2ccco2)c(C(=O)c2ccccn2)s1 [Compound 169, N-[4-(2-Furyl)-5-(pyridin-2-ylcarbonyl)thiazol-2-yl]-N′-(3-methoxypropyl)urea]
234 to 235 °C	O=C(c1ccccn1)c1sc(NC(=O)C2CCOCC2)nc1-c1ccco1 [Compound 102, N-[4-(2-Furyl)-5-(pyridin-2-ylcarbonyl)thiazol-2-yl]tetrahydropyran-4-carboxamide]
195 to 196 °C	CC1(C(=O)Nc2nc(-c3ccco3)c(C(=O)c3ccccn3)s2)CC1 [Compound 100, N-[4-(2-Furyl)-5-(pyridin-2-ylcarbonyl)thiazol-2-yl]-1-methylcyclopropanecarboxamide]
275 to 277 °C (dec.)	Cc1cnc(C(=O)c2sc(NC(=O)c3ccncc3)nc2-c2ccco2)s1 [Compound 256, N-[4-(2-Furyl)-5-(5-methylthiazol-2-ylcarbonyl)thiazol-2-yl]pyridine-4-carboxamide]
160 to 162 °C	O=C(Nc1nc(-c2ccco2)c(C(=O)C2CCOCC2)s1)c1ccc(CN2CCCCC2)cc1 [Compound 385, N-[4-(2-Furyl)-5-(tetrahydropyran-4-ylcarbonyl)thiazol-2-yl]-4-(piperidinomethyl)benzamide]
295 to 296 °C	CCn1cc(C(=O)c2sc(NC(=O)c3ccncc3)nc2-c2ccco2)ccc1=O [Compound 269, N-[5-(1-Ethyl-2-oxo-1,2-dihydropyridin-5-ylcarbonyl)-4-(2-furyl)thiazol-2-yl]pyridine-4-carboxamide]
227 to 229 °C	O=C(Nc1nc(-c2ccco2)c(C(=O)C2CCOCC2)s1)c1ccsc1 [Compound 423, N-[4-(2-Furyl)-5-(tetrahydropyran-4-ylcarbonyl)thiazol-2-yl]thiophene-3-carboxamide]
115 to 117 °C	O=C(c1sc(NC(=O)C2CCCO2)nc1-c1ccco1)C1CCOCC1 (stereo not shown) [Compound 428, N-[4-(2-Furyl)-5-(tetrahydropyran-4-ylcarbonyl)thiazol-2-yl]tetrahydrofuran-2-carboxamide]
280 to 285 °C	Cn1ccc(C(=O)Nc2nc(-c3ccco3)c(C(=O)c3ccccn3)s2)cc1=O [Compound 141, N-[4-(2-Furyl)-5-(pyridin-2-ylcarbonyl)thiazol-2-yl]-1-methyl-2-oxo-1,2-dihydropyridine-4-carboxamide]
144 to 145 °C	O=C(Nc1nc(-c2ccco2)c(C(=O)c2ccccn2)s1)OC1CCOCC1 [Compound 161, 4-Tetrahydropyranyl N-[4-(2-furyl)-5-(pyridin-2-ylcarbonyl)thiazol-2-yl]carbamate]

melting point	SMILES
109 to 111 °C	COC1CCN(CC(=O)Nc2nc(-c3ccco3)c(C(=O)C3CCOCC3)s2)CC1 [Compound 450, N-[4-(2-Furyl)-5-(tetrahydropyran-4-ylcarbonyl)thiazol-2-yl]-2-(4-methoxypiperidino)acetamide]
210 to 212 °C	O=C(Nc1nc(-c2ccco2)c(C(=O)C2CCOCC2)s1)c1cccc(Cl)c1 [Compound 375, 3-Chloro-N-[4-(2-furyl)-5-(tetrahydropyran-4-ylcarbonyl)-thiazol-2-yl]benzamide]
168 to 169 °C	CC(=O)c1cccc(C(=O)Nc2nc(-c3ccco3)c(C(=O)c3ccccn3)s2)c1 [Compound 115, 3-Acetyl-N-[4-(2-furyl)-5-(pyridin-2-ylcarbonyl)thiazol-2-yl]benzamide]
181 to 184 °C	COc1ccccc1C(=O)Nc1nc(-c2ccco2)c(C(=O)C2CCOCC2)s1 [Compound 366, N-[4-(2-Furyl)-5-(tetrahydropyran-4-ylcarbonyl)thiazol-2-yl]-2-methoxybenzamide]
276 to 285 °C	O=C(Nc1nc(-c2ccco2)c(C(=O)c2ccncc2)s1)c1ccncc1 [Compound 236, N-[4-(2-Furyl)-5-(pyridin-4-ylcarbonyl)thiazol-2-yl]pyridine-4-carboxamide]
148 to 149 °C	O=C(CN1CCSCC1)Nc1nc(-c2ccco2)c(C(=O)c2ccccn2)s1 [Compound 190, N-[4-(2-Furyl)-5-(pyridin-2-ylcarbonyl)thiazol-2-yl]-2-thiomorpholinoacetamide]
278 to 280 °C	COc1cc(OC)cc(C(=O)Nc2nc(-c3ccco3)c(C(=O)C3CCOCC3)s2)c1 [Compound 393, N-[4-(2-Furyl)-5-(tetrahydropyran-4-ylcarbonyl)thiazol-2-yl]-3,5-dimethoxybenzamide]
104 to 106 °C	CC1CCN(CC(=O)Nc2nc(-c3ccco3)c(C(=O)c3ccccn3)s2)CC1 [Compound 174, N-[4-(2-Furyl)-5-(pyridin-2-ylcarbonyl)thiazol-2-yl]-2-(4-methylpiperidino)acetamide]
182 to 186 °C	CC(C)NC(=O)Nc1nc(-c2ccco2)c(C(=O)c2ccccn2)s1 [Compound 166, N-[4-(2-Furyl)-5-(pyridin-2-ylcarbonyl)thiazol-2-yl]-N′-isopropylurea]
129 to 130 °C	CN(C)CC(=O)Nc1nc(-c2ccco2)c(C(=O)C2CCOCC2)s1 [Compound 438, 2-(Dimethylamino)-N-[4-(2-furyl)-5-(tetrahydropyran-4-ylcarbonyl)thiazol-2-yl]acetamide]
220 to 225 °C	N#Cc1ccc(C(=O)Nc2nc(-c3ccco3)c(C(=O)C3CCC3)s2)cc1 [Compound 332, 4-Cyano-N-[5-(cyclobutylcarbonyl)-4-(2-furyl)thiazol-2-yl]benzamide]
209 to 212 °C	O=C(Nc1nc(-c2ccco2)c(C(=O)C2CCOCC2)s1)c1cccnc1 [Compound 406, N-[4-(2-Furyl)-5-(tetrahydropyran-4-ylcarbonyl)thiazol-2-yl]pyridine-3-carboxamide]
184 to 185 °C	O=C(CCl)Nc1nc(-c2ccco2)c(C(=O)c2ccccn2)s1 [Compound 170, 2-Chloro-N-[4-(2-furyl)-5-(pyridin-2-ylcarbonyl)thiazol-2-yl]acetamide]
148 to 149 °C	CCCC(=O)Nc1nc(-c2ccco2)c(C(=O)c2ccccn2)s1 [Compound 97, N-[4-(2-Furyl)-5-(pyridin-2-ylcarbonyl)thiazol-2-yl]-butanamide]
155 to 157 °C	COC1(CN2CCN(CC(=O)Nc3nc(-c4ccco4)c(C(=O)C4CCOCC4)s3)CC2)CC1 [Compound 472, N-[4-(2-Furyl)-5-(tetrahydropyran-4-ylcarbonyl)thiazol-2-yl]-2-{4-[(1-methoxycyclopropyl)methyl]piperazin-1-yl}acetamide]
148 to 150 °C	O=C(COc1ccccc1)Nc1nc(-c2ccco2)c(C(=O)C2CCOCC2)s1 [Compound 434, N-[4-(2-Furyl)-5-(tetrahydropyran-4-ylcarbonyl)thiazol-2-yl]-2-phenoxyacetamide]
170 to 188 °C	CN1CCN(CC(=O)Nc2nc(-c3ccco3)c(C(=O)c3ccccn3)s2)CC1=O.Cl
191 to 194 °C	CCCC(=O)c1sc(NC(=O)c2ccncc2)nc1-c1ccco1 [Compound 289, N-[5-Butyryl-4-(2-furyl)thiazol-2-yl]pyridine-4-carboxamide]
240 to 245 °C	CC(C)(C)C(=O)c1sc(NC(=O)c2ccncc2)nc1-c1ccco1 [Compound 306, N-[4-(2-Furyl)-5-pivaloylthiazol-2-yl]pyridine-4-carboxamide]
172 to 180 °C (dec.)	COc1cc(C(=O)Nc2nc(-c3ccco3)c(C(=O)c3ccccn3)s2)cc(OC)c1OC [Compound 112, N-[4-(2-Furyl)-5-(pyridin-2-ylcarbonyl)thiazol-2-yl]-3,4,5-trimethoxybenzamide]
